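48-hour exposure; five concentrations; linearly interpolated endpoints. GI50 = concentration required for 50% inhibition of growth. TGI: concentration producing complete growth inhibition.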
Legend:
Experiment in all cases: inhibition of tumour cell growth, NCI panel, 48 h
MOLT-4 leukemia = test system: MOLT-4 leukemia
M14 melanoma = test system: M14 melanoma
OVCAR-4 ovarian = test system: OVCAR-4 ovarian
CCRF-CEM leukemia = test system: CCRF-CEM leukemia
TK-10 renal = test system: TK-10 renal
HT29 colon = test system: HT29 colon
EKVX NSCLC = test system: EKVX NSCLC
NCI-H460 lung = test system: NCI-H460 lung
U251 CNS = test system: U251 CNS
SNB-75 CNS = test system: SNB-75 CNS
UACC-62 melanoma = test system: UACC-62 melanoma
786-0 renal = test system: 786-0 renal
A549 NSCLC = test system: A549 NSCLC

| SMILES | TGI (MOLT-4 leukemia) | TGI (M14 melanoma) | TGI (OVCAR-4 ovarian) | TGI (CCRF-CEM leukemia) | TGI (TK-10 renal) | TGI (HT29 colon) | TGI (EKVX NSCLC) | TGI (NCI-H460 lung) | TGI (U251 CNS) | TGI (SNB-75 CNS) | TGI (UACC-62 melanoma) | TGI (786-0 renal) | TGI (A549 NSCLC) | GI50 (SNB-75 CNS) |
| --- | --- | --- | --- | --- | --- | --- | --- | --- | --- | --- | --- | --- | --- | --- |
| CC1(C)CCC[C@@]2(C)C1CC[C@@]1(CO1)[C@@H]2/C=C\C(C=O)CC=O (stereo not given in full) | 62.2 µM | > 100 µM | > 100 µM | > 68.7 µM | > 100 µM | > 100 µM | > 100 µM | > 100 µM | > 100 µM | > 100 µM | > 100 µM | > 100 µM | > 100 µM | – |
| O=C(NCc1ccccc1)C1C(=O)C(=O)N(Cc2ccccc2)C1=O (stereo not given) | > 100 µM | > 100 µM | > 100 µM | > 100 µM | > 100 µM | > 100 µM | > 100 µM | > 100 µM | > 100 µM | > 100 µM | > 100 µM | > 100 µM | > 100 µM | – |
| O=C(O)CCC(NC(=O)c1ccc(CNc2nc3cc(C(F)(F)F)ccc3nc2C(=O)O)cc1)C(=O)O (stereo not given) | > 100 µM | > 100 µM | > 100 µM | > 100 µM | > 100 µM | > 100 µM | > 100 µM | > 100 µM | > 100 µM | > 100 µM | > 100 µM | > 100 µM | > 100 µM | – |
| N#CCC(=O)Nc1ccccc1O | > 100 µM | > 100 µM | > 100 µM | > 100 µM | > 100 µM | > 100 µM | > 100 µM | > 100 µM | > 100 µM | > 100 µM | > 100 µM | > 100 µM | > 100 µM | – |
| COC(=O)C(C#N)C1NC(=O)c2ccccc21 (stereo not given) | > 100 µM | > 100 µM | > 100 µM | > 100 µM | > 100 µM | > 100 µM | > 100 µM | > 100 µM | > 100 µM | > 100 µM | > 100 µM | > 100 µM | > 100 µM | – |
| COc1cccc(CCn2c(N)c(C#N)c3ccc([N+](=O)[O-])cc3c2=O)c1 | > 31.6 µM | > 31.6 µM | > 100 µM | > 31.6 µM | > 46.4 µM | > 31.6 µM | > 31.6 µM | > 46.4 µM | > 100 µM | > 46.4 µM | > 31.6 µM | > 46.4 µM | > 46.4 µM | – |
| COc1cc(C(=O)OC2CC34CCNC35CC(OC5(OC)C2O)c2cc3c(cc24)OCO3)ccc1O (stereo not given) | > 100 µM | > 100 µM | > 100 µM | > 100 µM | > 100 µM | > 100 µM | > 100 µM | > 100 µM | > 100 µM | > 100 µM | > 100 µM | > 100 µM | > 100 µM | – |
| CC(O)C1OC(n2ccc(=O)[nH]c2=O)CC1n1cncn1 (stereo not given) | > 100 µM | > 100 µM | > 100 µM | > 100 µM | > 100 µM | > 100 µM | > 100 µM | > 100 µM | > 100 µM | > 100 µM | > 100 µM | > 100 µM | > 100 µM | > 100 µM |

— PubChem BioAssay (NCI)
